Entries after “also recorded” stand apart in the source; their conditions may differ.
Key:
[1] = system: expanded mouse Schwann cells; test: Cell death in expanded mouse Schwann cells passaged three times (phase contrast, propidium iodide); type: cell-based; settings: 100 μM vacor for 72 hours vs DMSO; Schwann cells passaged three times in proliferative medium
Experimental: Mouse SCs were passaged on PLL/laminin coated dishes in the presence of low serum (0.5% horse serum), 10 ng/ml Bneuregulin1 (BNRG1), and a low concentration cyclic adenosine monophosphate (CAMP) elevating signal, such as 2 μM forskolin or 100 μM dibutryl cAMP (Arthur-Farraj et al., 2011). Full protocol is described in (Mutschler et al., 2023).

[2] = system: freshly plated P2 mouse Schwann cells; test: Cell death in freshly plated P2 mouse Schwann cells (propidium iodide, DAPI, SOX10); type: cell-based; settings: 100 μM vacor for 72 hours vs DMSO
Experimental: (§1) Freshly plated mouse Schwann cells were obtained from P2 sciatic and brachial nerves. Nerves were digested with trypsin and collagenase, centrifuged and plated on laminin/Poly-L-lysine coated glass coverslips in defined medium as previously described (Arthur-Farraj et al., 2011).
Sciatic and optic nerves were dissected from Wt and Sarm1 KO mice and directly embedded in O.C.T. compound, without fixing, and stored at −80° C. until ready for cryosectioning. Cryosections at 5 μm thick were collected onto SuperFrost plus slides. These slides were post-fixed in 4% paraformaldehyde (PFA) at room temperature for 10 mins followed by three washes of 5 mins each with 1×PBS. The slides were then immersed in 100% methanol at −20° C. for 10 mins, followed by three washes of 5 mins each with 1×PBS. The slides were then blocked in 5% horse serum (HS)/0.2% Triton x-100/PBS for 30 mins at room temperature. Primary antibodies were diluted in blocking solution and slides were incubated overnight at 4° C. The following day, the slides were washed once for 5 mins with 1×PBS, twice for 5 mins with 0.1% tween/PBS and finally once again for 5 mins with 1×PBS before adding secondary antibodies. The corresponding secondary antibodies were diluted at 1:500 along with DAPI at 1:2000 for 2 hrs at room temperature and kept in the dark. […]

Schwann cells = test: Intracellular NAD+ in Schwann cells (NAD-glo assay); type: cell-based, mouse; settings: 100 μM vacor, 72 hours, compared to DMSO control
Experimental: as §1
[…] Protein was extracted using Pierce™ IP Lysis Buffer supplemented with cOmplete™ Mini EDTA-free Protease Inhibitor Cocktail, and a BCA assay carried out to determine protein concentration. All samples were diluted to 0.5 μg/μL. The NAD-glo assay was performed according to manufacturer's instruction of the NAD^+/NADH-Glo™ assay by Promega (G9071). In short, 25 μL of sample were incubated with 12.5 μL 0.4M HCl at 60° C. for 15 min, before 12.5 μL 0.5M Tris base were added. 10 μL NAD^+ standards or sample were then mixed with 10 μL NAD-glo master mix (1 ml luciferin detection reagent, 5 μl reductase, 5 μl reductase substrate, 5 μl NAD^+ cycling enzyme, 25 μl NAD^+ cycling substrate) and incubated at RT for 40 min. Luminescence was read using a GloMax® Explorer microplate reader and NAD^+ concentrations determined relative to a NAD^+ standard curve.

HEK293 cells = test: Intracellular NAD+ in HEK293 cells (NAD-glo assay); type: cell-based, Human; settings: 100 μM vacor, 72 hours
Experimental: Schwann and HEK 293T cells were treated with 100 μM vacor, 250 μM 3AP, or vehicle controls, and collected in media at Oh and 72 h after treatment. Protein was extracted using Pierce™ IP Lysis Buffer supplemented with cOmplete™ Mini EDTA-free Protease Inhibitor Cocktail, and a BCA assay carried out to determine protein concentration. All samples were diluted to 0.5 μg/μL. The NAD-glo assay was performed according to manufacturer's instruction of the NAD^+/NADH-Glo™ assay by Promega (G9071). In short, 25 μL of sample were incubated with 12.5 μL 0.4M HCl at 60° C. for 15 min, before 12.5 μL 0.5M Tris base were added. 10 μL NAD^+ standards or sample were then mixed with 10 μL NAD-glo master mix (1 ml luciferin detection reagent, 5 μl reductase, 5 μl reductase substrate, 5 μl NAD^+ cycling enzyme, 25 μl NAD^+ cycling substrate) and incubated at RT for 40 min. Luminescence was read using a GloMax® Explorer microplate reader and NAD^+ concentrations determined relative to a NAD^+ standard curve.

[3] = LeWitt, 1980; Loreto et al., 2021; cited from earlier work
Human foetal DRG axons = test: Axon degeneration and regeneration assay in human foetal DRGs in microfluidic chambers; type: cell-based; settings: 24 h after addition of 25 μM Vacor in the axonal compartment
Experimental: Human foetal DRG ganglia were dissected, dissociated and plated in microfluidic chambers (150 μm barrier, XONA Microfluidics) in 35 mm tissue culture dishes pre-coated with poly-L-lysine (100 μg/ml for 1 hr; Merck) and laminin (20 μg/ml for 1 hr; Merck) in Dulbecco's Modified Eagle's Medium (DMEM, Gibco) with 1% penicillin/streptomycin, 33 ng/ml 2.5 S NGF (all Invitrogen) and 2% B27 (Gibco). 4 μM aphidicolin (Merck) was used to reduce proliferation and viability of small numbers of non-neuronal cells. On DIV7, a difference of 100 μl of media between chambers was introduced and drugs were added to the compartment with the lower hydrostatic pressure. Phase contrast microscopy images were acquired on a DMi8 upright fluorescence microscope (Leica microsystems) coupled to a monochrome digital camera (Hamamatsu C4742-95). The objective used was HCXPL 20 X/0.40 CORR.

neuronal cultures = settings: Loreto et al., 2021, Wu et al.; cited from earlier work

## O=C(NCc1cccnc1)Nc1ccc([N+](=O)[O-])cc1 [vacor, Vacor]
[1]
  cell death by propidium iodide (P.I.) staining and phase contrast: susceptible to cellular dysfunction and death; also recorded: substantial increase in P.I. staining
[2]
  cell death judged by propidium iodide (P.I) and DAPI nuclear staining and SOX10 immunocytochemistry: completely insensitive; also recorded: no cell death
Schwann cells
  Intracellular NAD+ levels: no reduction; also recorded: do not change
HEK293 cells
  Intracellular NAD+ levels: decrease
[3]
  neurotoxic effects in humans: severe neurotoxic effects
Human foetal DRG axons
  DRG axon degeneration: degenerate
Neuronal cultures
  effect of high dose on neuronal cultures: axonal degeneration and cell death within hours

— patent US20260166017A1, “SARM1 INHIBITORS FOR USE IN THERAPY AND COSMETICS” (priority 2022, published 2026)
